Our source for the IC50 and inhibition values is patent publication US9718817B2, “Aryl and heteroaryl ether compounds as ROR gamma modulators” (Glenmark Pharmaceuticals S.A., priority 2014, dated 2017).

Where only a bound is given, the exact number is not on record here.

This assay addresses T1, GST-tagged ROR gamma ligand binding domain (LBD) (Homo sapiens, UniProt P51449).
T1 construct: purchased Invitrogen
T1 sequence (P51449 269-508 limits assumed): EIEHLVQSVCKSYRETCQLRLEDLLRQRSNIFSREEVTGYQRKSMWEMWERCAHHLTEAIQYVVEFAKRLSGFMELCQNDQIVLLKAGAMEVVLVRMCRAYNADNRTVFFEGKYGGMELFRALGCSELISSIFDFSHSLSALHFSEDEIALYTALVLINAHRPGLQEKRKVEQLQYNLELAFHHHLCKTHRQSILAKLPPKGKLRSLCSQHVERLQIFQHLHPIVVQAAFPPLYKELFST
Kind of assay: TR-FRET assay for ROR gamma (LanthaScreen co-activator peptide recruitment). Type of assay: biochemical. The following applies: for IC50: class symbols, from dose response curve; for inhibition at 1 µM: compound 1 μM; for inhibition at 1 µM / inhibition at 10 µM: TR-FRET ratio 520/495, percent of control; for inhibition at 10 µM: compound 10 μM. The procedure, abridged: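 Antagonist mode: 10 nM GST-RORγ LBD pre-incubated with compound 1 h at 22 °C in 25 mM HEPES pH 7.4, 100 mM NaCl, 5 mM DTT, 0.01% BSA, 4% DMSO final. Then 300 nM fluorescein-D22 co-activator peptide plus 10 nM Tb-anti-GST added, 1 h at room temperature. IC50 by nonlinear regression of the 520/495 TR-FRET ratio as percent of no-compound control.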
(In general: TR-FRET usually uses a lanthanide donor and a delayed reading to cut background.)

For orientation: IC50 means the concentration needed to halve the response being measured. A high value points to weaker potency. What is called inhibition is the percentage by which the read-out fell short of the control. For `CCS(=O)(=O)c1ccc(CC(=O)Nc2ccc(OC3(c4ccc(Cl)cc4Cl)CC3)c(F)c2)cc1` [Example 138, N-(4-((1-(2,4-Dichlorophenyl)cyclopropyl)oxy)-3-fluorophenyl)-2-(4-(ethylsulfonyl)phenyl)acetamide], the IC50 was under 50 nM, the inhibition at 1 µM stood at 86.8% and the inhibition at 10 µM was 83.6%.
The corresponding values for `CCS(=O)(=O)c1ccc(CC(=O)Nc2ccc(OC3(c4ccc(Cl)cc4Cl)CCC3)c(F)c2)cc1` [Example 139, N-(4-((1-(2,4-Dichlorophenyl)cyclobutyl)oxy)-3-fluorophenyl)-2-(4-(ethylsulfonyl)phenyl)acetamide] are under 50 nM, 86.3% and 82.6%.
The corresponding values for `CCS(=O)(=O)c1ccc(CC(=O)Nc2ccc(OC3(c4ccc(F)cc4F)CCCCC3)c(F)c2)cc1` [Example 140, N-(4-((1-(2,4-Difluorophenyl)cyclohexyl)oxy)-3-fluorophenyl)-2-(4-(ethylsulfonyl)phenyl)acetamide] are under 50 nM, 69.1% and 72.8%.
The corresponding values for `CCS(=O)(=O)c1ccc(CC(=O)Nc2ccc(OC3(c4ccc(F)cc4F)CCC3)c(F)c2)cc1` [Example 141, N-(4-(1-(2,4-Difluorophenyl)cyclobutoxy)-3-fluorophenyl)-2-(4-(ethylsulfonyl)phenyl)acetamide] are under 50 nM, 81.4% and 75.2%.
As to `CCS(=O)(=O)c1ccc(CC(=O)Nc2ccc(OC3(c4ccc(F)cc4F)COC3)c(F)c2)cc1` [Example 142, N-(4-((3-(2,4-Difluorophenyl)oxetan-3-yl)oxy)-3-fluorophenyl)-2-(4-(ethylsulfonyl)phenyl)acetamide], the IC50 is under 50 nM, the inhibition at 1 µM is 81.1% and the inhibition at 10 µM was found to be 81.5%.
For `CCn1c(C(C)(C)Oc2ccc(Cl)cc2Cl)nc2cc(NC(=O)Cc3ccc(S(=O)(=O)CC)cc3)ccc21` [Example 144, N-(2-(2-(2,4-Dichlorophenoxy)propan-2-yl)-1-ethyl-1H-benzo[d]imidazol-5-yl)-2-(4-(ethylsulfonyl)phenyl)acetamide], in that order: under 50 nM, 90.6% and 92.5%.
The corresponding values for `CCS(=O)(=O)c1ccc(CC(=O)Nc2ccc3c(c2)nc(C(C)(C)Oc2ccc(F)cc2F)n3CCF)cc1` [Example 145, N-(2-(2-(2,4-Difluorophenoxy)propan-2-yl)-1-(2-fluoroethyl)-1H-benzo[d]imidazol-5-yl)-2-(4-(ethylsulfonyl)phenyl)acetamide] are under 50 nM, 79.7% and 85.8%.
